Experimental data published in patent US11548855B2, “Pyrazole amide compound and application thereof, and fungicide” (Shandong United Pesticide Industry Co. Ltd., priority 2017, dated 2023).

Key:
[1] = system: corn rust (Puccinia sorghi); experiment: Greenhouse pot test, corn rust; assay type: in vivo
Procedure: (§1) Test method: each of the test compounds in Table 1 was dispensed to 5 wt % emulsifiable concentrate (hereinafter referred to as 5% EC). The greenhouse pot test was used in each experiment, and the effective concentrations of each compound were illustrated in Table 1.
Corn rust: two-three leaf stage potted corn seedling with uniform growth was selected and made foliar spray treatment with 5% EC, the blank control sprayed with clean water was additionally arranged, three replicates were carried out. After 24 h, the leaves of the host plants were inoculated with sporangial suspensions of the fungi corn rust (Puccinia sorghi), the plants were stored in humidity chamber (temperature: lighting 25° C., dark 20° C., relative humidity 95-100%) and then transferred to greenhouse (25±1° C.) 24 h after infection. After 7 days, the screening results were investigated according to the disease incidence condition of blank control.
(§2) The investigation method: “Guidelines for the field efficacy trials of pesticides” was adopted as the grading standard, and the control effect in a unit of % was calculated based on the disease index. Disease index=Σ(number of diseased leaves at each grade×relative grade value)×100/(total number of leaves×9); Control effect (%)=(disease index of control−disease index of treated)×100/disease index of control;
(§3) The compounds provided by the present disclosure and some control compounds were tested by the same methods in the Test example 1, except that the effective concentrations of the compounds in this Test example are shown in Table 2.

[2] = system: rice sheath blight fungi (Rhizoctonia solami); experiment: Greenhouse pot test, rice sheath blight; assay type: in vivo
Procedure: as §3
In addition, the test method for rice sheath blight as following steps:
The potted rice seedling with uniform growth was selected, and dried in the shade for 24 h after spray treatment, then inoculated 3 blocks of 0.25 cm^2 rice sheath blight fungi (Rhizoctonia solami) at the base of seedling by clamp inoculation bacterium block method. The test materials inoculated were moved into greenhouse (temperature: lighting 28° C., dark 25° C., relative humidity 95%), after 7 days, investigate 5 leaves of per block treatment, the grading investigation was carried out according to the disease incidence condition of sheaths and leaves of rice, “Guidelines for the field efficacy trials of pesticides” was adopted as the grading standard, the disease index was calculated according to the grading standard, and the control effect in a unit of % was calculated according to disease index.

wheat powdery mildew = experiment: Field trial, wheat powdery mildew; assay type: in vivo, Erysiphe graminis; settings: 100 mg/L, sprayed once
Procedure: II. The Wheat Powdery Mildew Test Method:
(§4) Spray method: Stein and leaf spraying (Applicator: Xinkangda lithium battery electric sprayer).
Test crops: wheat (cultivars: Liaochun 10)
(§5) The test was carried out in Shenyang, the test field was loam with rich organic matters and normal management of fertilizer and water, and no other pesticide was applied during the test.
(§6) The arrangement of the test plot was random block permutation; the area of the test plot: 15 m^2; repeat times: 3 times; spray time and frequency: Sep. 17, 2018, once. Spray dosage: each treatment was repeated 3 times, the total water consumption was 8 L. No other pesticide was applied during the test.
The incidence of disease spots in each plot was investigated by diagonal selecting 4 samples/plot and 20 plants/samples, and the first leaf below the flag leaf of each plant was investigated.
(§7) The grading standard of crop disease was as follows:
(§8) Grade 0: no leaf-spot area;
(§9) Grade 1: the ratio of leaf-spot area to leaf area is less than 5%;
(§10) Grade 3: the ratio of leaf-spot area to leaf area is between 6-25%;
(§11) Grade 5: the ratio of leaf-spot area to leaf area is between 26-50%;
(§12) Grade 7: the ratio of leaf-spot area to leaf area is between 51-75%;
(§13) Grade 9: the ratio of leaf-spot area to leaf area is between 76-100%;
(§14) According to the relevant content of the “Guidelines for the field efficacy trials of pesticides of the People's Republic of China (PRC)”, the disease index was calculated according to the grading standard, and the control effect in a unit of % was calculated based on the disease index, and the test data of significance analysis was performed by using DPS evaluation system (DMRT).

[3] = system: wheat powdery mildew (Erysiphe graminis); experiment: Greenhouse pot test, wheat powdery mildew; assay type: in vivo
Text: as §1
Wheat powdery mildew: two-leaf stage potted wheat seedling with uniform growth was selected and made foliar spray treatment with 5% EC, the blank control sprayed with clean water was additionally arranged, three replicates were carried out. After 24 h, the leaves of the host plants were inoculated by shake-down method with sporangial suspensions of the fungi wheat powdery mildew (Erysiphe graminis), the plants were stored in a greenhouse (25±1° C.). After 7 days, the screening results were investigated according to the disease incidence condition of blank control.
as §2, §3

soybean rust = experiment: Field trial, soybean rust; assay type: in vivo, Phakopsora pacchyrhizi Sydow; settings: sprayed 2 times
Procedure: III. The Soybean Rust Test Method:
as §4
Test crops: soybean (cultivars: Glycine max(L) Merr)
as §5
as §6, with “25” for “15”, “2 times on Aug. 11, 2018 and Aug. 21, 2018 respectively.” for “Sep. 17, 2018, once.”, “test. […] 15-20 days after the second spray treatment, the control effect was investigated.” for “test.”
The incidence of disease spots in each plot was investigated by diagonal selecting 5 samples/plot and 20 plants/samples, 10 leaves/plant was surveyed.
as §7, §8, §9, §10, §11, §12, §13, §14

cucumber powdery mildew = experiment: Greenhouse pot test, cucumber powdery mildew; assay type: in vivo; settings: greenhouse pot
Procedure: as §1
Cucumber powdery mildew: cucumber seedling in a true leaf period with uniform growth was selected, and dried in the shade for 24 h after spray treatment. Fresh cucumber powdery mildew spores on the cucumber leaves were collected and washed, and filtered through a double gauze to prepare a spores suspension with concentration of about 100,000/mL, then spray inoculation was applied. The test materials inoculated were moved into a greenhouse (lighting 21-23° C.), after 8 days, the grading investigation was carried out according to the disease incidence condition of blank control, and the control effect in a unit of % was calculated according to disease index.
as §2, §3

[4] = system: soybean rust (Phakopsora pacchyrhizi Sydow); experiment: Greenhouse pot test, soybean rust; assay type: in vivo
Procedure: as §1
Soybean rust: two-leaf stage potted soybean seedling with uniform growth was selected and made foliar spray treatment with 5% EC, the blank control sprayed with clean water was additionally arranged, three replicates were carried out. After 24 h, the leaves of the host plants were inoculated with sporangial suspensions of the fungi soybean rust (Phakopsora pacchyrhizi Sydow), the plants were stored in humidity chamber (temperature 20-25° C., relative humidity>95%) and then transferred to greenhouse (25±1° C.) 8-16 h after infection. After 7 days, the screening results were investigated according to the disease incidence condition of blank control.
as §2, §3

Cn1cc(C(=O)Nc2cccc3c2[C@@H]2CC[C@H]3C2=C(Cl)Cl)c(C(F)F)n1 (racemic) [Benzovindiflupyr]
Control effect (%) Corn rust ([1]; 1.5625 mg/L): 95% | Control effect (%) Corn rust ([1]; 3.1250 mg/L): 98% | Control effect (%) Rice sheath blight ([2]; 0.5 mg/L): 30% | Control effect (%) Rice sheath blight ([2]; 1 mg/L): 40% | Control effect (%) Rice sheath blight ([2]; 1.5625 mg/L): 55% | Control effect (%) Rice sheath blight ([2]; 3.1250 mg/L): 65% | Control effect (%) Wheat powdery mildew (wheat powdery mildew): 95% | Control effect (%) Wheat powdery mildew ([3]; 1.5625 mg/L): 50% | Control effect (%) Wheat powdery mildew ([3]; 3.1250 mg/L): 70% | Control effect (%) (soybean rust; dosage 50 mg/L): 91.46% | Control effect (%) (soybean rust; dosage 75 mg/L): 94.51% | Control effect (%) (soybean rust; dosage 100 mg/L): 97.15% | Control effect (%) Cucumber powdery mildew (cucumber powdery mildew; 1.5625 mg/L): 20% | Control effect (%) Cucumber powdery mildew (cucumber powdery mildew; 6.25 mg/L): 80% | Control effect (%) Cucumber powdery mildew (cucumber powdery mildew; 25 mg/L): 100% | Control effect (%) Cucumber powdery mildew (cucumber powdery mildew; 100 mg/L): 100% | Control effect (%) Soybean rust ([4]; 0.5 mg/L): 95% | Control effect (%) Soybean rust ([4]; 1 mg/L): 98% | Control effect (%) Soybean rust ([4]; 1.5625 mg/L): 100% | Control effect (%) Soybean rust ([4]; 3.1250 mg/L): 100%

Fc1ccc([C@]2(Cn3cncn3)O[C@H]2c2ccccc2Cl)cc1 (racemic) [Epoxiconazole]
Control effect (%) Rice sheath blight ([2]; 0.625 mg/L): 30% | Control effect (%) Rice sheath blight ([2]; 2.5 mg/L): 70% | Control effect (%) Rice sheath blight ([2]; 10 mg/L): 100%

CO/C=C(/C(=O)OC)c1ccccc1Oc1cc(Oc2ccccc2C#N)ncn1 [Azoxystrobin]
Control effect (%) (soybean rust; dosage 50 mg/L): 84.62% | Control effect (%) Cucumber powdery mildew (cucumber powdery mildew; 100 mg/L): 0% | Control effect (%) Cucumber powdery mildew (cucumber powdery mildew; 400 mg/L): 30%
